In US8791264B2 (Purdue Pharma L.P., priority 2006, dated 2014):
pIC50: −log10 of the molar value.

Assays:
[1] = molecular target: T1, N-type calcium channel (NTCC) (Homo sapiens, UniProt Q00975); experiment: FLIPR calcium mobilization assay for N-type calcium channel; assay type: cell-based; settings: calcium mobilization in vitro assay; differentiated IMR32 cells
T1 construct: host or cells: IMR32 cells differentiated with dibutyryl cAMP and bromodeoxyuridine
Protocol: Unless noted otherwise, cell culture reagents were purchased from Mediatech of Herndon, Md. IMR32 cells (American Type Culture Collection, ATCC, Manassas, Va.) were routinely cultured in growth medium consisting of minimum essential medium containing 10% fetal bovine serum (FBS, Hyclone, Logan, Utah), 100 U/mL penicillin, 100 μg/mL streptomycin, 2 mM L-glutamine, 1 mM sodium pyruvate, and 1× MEM non-essential amino acids. 80-90% confluent flasks of cells were differentiated using the following differentiation medium: Growth medium plus 1 mM dibutyryl cyclic AMP (Sigma, St. Louis, Mo.), and 2.5 μM bromodeoxyuridine (Sigma). Cells were differentiated for 8 days by replacing differentiation medium every 2-3 days.
FLIPR Calcium Mobilization Assay for N-Type Calcium Channel.
One day prior to performing this assay, differentiated IMR32 cells were treated with 1× CellStripper, and seeded on poly-D-lysine-coated 96-well clear-bottom black plates (Becton Dickinson, Franklin Lakes, N.J.) at 200,000 cells/well. On the day of the assay, the cell plates were washed with IMR32 buffer (127 mM NaCl, 1 mM KCl, 2 mM MgCl2, 700 μM NaH2PO4, 5 mM CaCl2, 5 mM NaHCO3, 8 mM HEPES, 10 mM glucose, pH 7.4), then pre-stimulated with KCl and loaded as follows: 0.05 mL of IMR32 buffer, 0.05 mL of each compound tested diluted in IMR32 buffer containing 20 μM nitrendipine (Sigma), and 0.1 mL KCl dissolved in IMR32 buffer, plus Fluo-4 were added (3 μM final concentration, Molecular Probes, Eugene, Oreg.). Final test compound concentrations ranged from about 846 pM to about 17 μM, final nitrendipine concentration was 5 μM, and final KCl concentration was 90 mM. After 1 hour, the cells were washed twice with 0.05 mL of each compound is tested in nitrendipine-containing IMR32 buffer (no KCl or Fluo-4), and then replaced with 0.1 mL of each compound tested in nitrendipine-containing IMR32 buffer. Plates were then transferred to a Fluorimetric Imaging Plate Reader (FLIPR^96, Molecular Devices, Inc., Sunnyvale, Calif.) for assay. The FLIPR measured basal Fluo-4 fluorescence for 315 seconds (i.e., 5 minutes and 15 seconds), then added 0.1 mL KCl agonist dissolved in IMR32 buffer and measured fluorescence for another 45 seconds. Final test compound concentrations on the cells after FLIPR read ranged from about 846 pM to about 17 μM, final nitrendipine concentration was 5 μM, and final KCl concentration was 90 mM. Data were collected over the entire time course and analyzed using Excel, Graph Pad Prism (version 3.02, Graph Pad, San Diego, Calif.), or an in-house non-linear regression analysis software.

[2] = molecular target: T2, recombinant rat L-type calcium channel (LTCC) subunits (α1c, α2δ, and β1) (Rattus norvegicus, UniProt P22002); experiment: FLIPR calcium mobilization assay for L-type calcium channel; assay type: cell-based; settings: calcium mobilization in vitro assay; HEK293 cells expressing rat LTCC
T2 construct: expressed in transfected cells
Protocol: Recombinant human embryonal kidney cells (HEK293, ATCC) stably transfected with either N-type calcium channel (NTCC) subunits (α1b, α2δ, and ⊖3) or L-type calcium channel (LTCC) subunits (α1, α2δ, and β1) were routinely cultured in growth medium consisting of Dulbecco's Modified Eagles Medium containing 10% FBS, 100 U/mL penicillin, 100 μg/mL streptomycin, 4 mM L-glutamine, 500 μg/mL geneticin (G418), 20 μg/mL Blasticidin S (InVivogen, San Diego, Calif.) and 500 μg/mL zeocin (InVivogen).
FLIPR Calcium Mobilization Assay for L-Type Calcium Channel.
One day prior to performing this assay, HEK293 cells stably expressing recombinant rat L-type calcium channel (LTCC) subunits (α1c, α2δ, and β1) were trypsinized, then seeded on poly-D-lysine-coated 96-well clear-bottom black plates (Becton Dickinson, Franklin Lakes, N.J.) at 75,000 cells/well. On the day of the assay, the plates were washed with LTCC wash buffer (127 mM NaCl, 2 mM MgCl2, 700 μM NaH2PO4, 5 mM CaCl2, 5 mM NaHCO3, 8 mM HEPES, 10 mM glucose, pH 7.4), then loaded with 0.1 mL of LTCC wash buffer containing Fluo-4 (3 μM final concentration, Molecular Probes, Eugene, Oreg.). After 1 hour, the cells were washed with 0.1 mL LTCC wash buffer and resuspended in 0.05 mL LTCC assay buffer (same composition as LTCC wash buffer). Plates were then transferred to a FLIPR^96 for assay. The FLIPR measured basal Fluo-4 fluorescence for 15 seconds, then is added 0.05 mL of each compound tested diluted in LTCC assay buffer at final concentrations ranging from about 846 pM to about 17 μM. Fluo-4 fluorescence was then measured for 5 minutes. 0.1 mL KCl agonist dissolved in LTCC assay buffer was then added to the cells to produce a final concentration of 90 mM KCl, and fluorescence was measured for another 45 seconds. Data were collected over the entire time course and analyzed using Excel, Graph Pad Prism, or an in-house regression analysis software.

T1 sequence (Q00975 whole entry): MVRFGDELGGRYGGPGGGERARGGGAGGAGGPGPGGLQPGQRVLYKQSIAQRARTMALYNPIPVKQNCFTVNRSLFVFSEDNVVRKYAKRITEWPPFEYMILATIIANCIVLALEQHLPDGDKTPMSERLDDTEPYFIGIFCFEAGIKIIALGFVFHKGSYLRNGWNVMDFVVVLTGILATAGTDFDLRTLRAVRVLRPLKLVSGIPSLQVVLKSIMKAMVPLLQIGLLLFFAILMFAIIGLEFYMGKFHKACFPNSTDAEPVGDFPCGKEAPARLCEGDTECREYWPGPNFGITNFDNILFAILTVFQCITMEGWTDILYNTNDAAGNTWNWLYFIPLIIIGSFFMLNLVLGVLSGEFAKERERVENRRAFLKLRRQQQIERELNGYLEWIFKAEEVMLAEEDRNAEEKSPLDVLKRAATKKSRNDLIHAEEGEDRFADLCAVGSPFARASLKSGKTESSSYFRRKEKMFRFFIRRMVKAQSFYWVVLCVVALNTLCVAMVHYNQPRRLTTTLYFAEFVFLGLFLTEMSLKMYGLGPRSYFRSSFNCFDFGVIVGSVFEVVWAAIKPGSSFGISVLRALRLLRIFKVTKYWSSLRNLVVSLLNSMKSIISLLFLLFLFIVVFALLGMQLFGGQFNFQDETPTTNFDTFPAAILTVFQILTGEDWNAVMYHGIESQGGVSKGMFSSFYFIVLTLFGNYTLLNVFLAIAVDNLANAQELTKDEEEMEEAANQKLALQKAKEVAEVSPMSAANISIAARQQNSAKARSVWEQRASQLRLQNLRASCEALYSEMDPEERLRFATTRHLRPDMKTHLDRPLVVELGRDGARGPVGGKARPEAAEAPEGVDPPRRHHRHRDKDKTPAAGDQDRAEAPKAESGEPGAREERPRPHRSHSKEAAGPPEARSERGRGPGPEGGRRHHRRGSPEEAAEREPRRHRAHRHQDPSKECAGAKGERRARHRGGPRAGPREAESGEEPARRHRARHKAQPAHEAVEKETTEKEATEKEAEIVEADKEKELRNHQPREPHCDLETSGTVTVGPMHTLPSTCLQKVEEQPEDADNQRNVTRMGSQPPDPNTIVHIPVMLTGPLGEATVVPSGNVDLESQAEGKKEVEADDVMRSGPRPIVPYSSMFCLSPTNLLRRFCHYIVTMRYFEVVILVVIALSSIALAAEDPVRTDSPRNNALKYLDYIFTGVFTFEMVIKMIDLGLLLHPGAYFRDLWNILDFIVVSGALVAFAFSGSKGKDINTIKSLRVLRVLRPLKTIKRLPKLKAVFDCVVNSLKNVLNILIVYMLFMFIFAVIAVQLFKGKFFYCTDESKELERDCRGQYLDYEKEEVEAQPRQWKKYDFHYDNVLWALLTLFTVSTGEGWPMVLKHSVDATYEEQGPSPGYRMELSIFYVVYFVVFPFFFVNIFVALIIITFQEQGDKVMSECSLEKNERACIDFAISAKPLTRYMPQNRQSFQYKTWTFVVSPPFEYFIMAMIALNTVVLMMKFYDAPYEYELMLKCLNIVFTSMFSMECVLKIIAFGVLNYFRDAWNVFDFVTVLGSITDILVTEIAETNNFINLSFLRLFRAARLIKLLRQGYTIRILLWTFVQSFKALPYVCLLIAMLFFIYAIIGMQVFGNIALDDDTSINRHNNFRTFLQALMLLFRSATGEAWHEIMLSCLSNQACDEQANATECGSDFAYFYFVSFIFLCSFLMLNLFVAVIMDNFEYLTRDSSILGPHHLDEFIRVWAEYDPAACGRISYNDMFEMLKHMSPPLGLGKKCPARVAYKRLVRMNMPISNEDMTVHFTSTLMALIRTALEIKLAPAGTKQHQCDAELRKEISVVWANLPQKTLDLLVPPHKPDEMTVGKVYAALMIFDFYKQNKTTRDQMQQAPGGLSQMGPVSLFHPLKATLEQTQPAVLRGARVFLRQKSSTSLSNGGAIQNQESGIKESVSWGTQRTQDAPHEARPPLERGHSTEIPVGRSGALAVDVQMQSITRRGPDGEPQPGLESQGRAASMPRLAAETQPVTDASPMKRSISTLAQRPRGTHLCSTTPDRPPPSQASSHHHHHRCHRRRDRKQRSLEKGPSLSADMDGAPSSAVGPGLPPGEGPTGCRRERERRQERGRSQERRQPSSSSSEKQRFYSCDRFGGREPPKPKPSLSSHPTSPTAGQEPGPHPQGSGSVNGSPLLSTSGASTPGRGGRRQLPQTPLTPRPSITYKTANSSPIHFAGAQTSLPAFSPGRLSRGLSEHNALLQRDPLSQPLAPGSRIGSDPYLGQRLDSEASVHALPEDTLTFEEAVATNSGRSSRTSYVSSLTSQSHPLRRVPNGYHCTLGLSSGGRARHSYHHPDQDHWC
T1 sequence (P54289 25-956 partner limits assumed): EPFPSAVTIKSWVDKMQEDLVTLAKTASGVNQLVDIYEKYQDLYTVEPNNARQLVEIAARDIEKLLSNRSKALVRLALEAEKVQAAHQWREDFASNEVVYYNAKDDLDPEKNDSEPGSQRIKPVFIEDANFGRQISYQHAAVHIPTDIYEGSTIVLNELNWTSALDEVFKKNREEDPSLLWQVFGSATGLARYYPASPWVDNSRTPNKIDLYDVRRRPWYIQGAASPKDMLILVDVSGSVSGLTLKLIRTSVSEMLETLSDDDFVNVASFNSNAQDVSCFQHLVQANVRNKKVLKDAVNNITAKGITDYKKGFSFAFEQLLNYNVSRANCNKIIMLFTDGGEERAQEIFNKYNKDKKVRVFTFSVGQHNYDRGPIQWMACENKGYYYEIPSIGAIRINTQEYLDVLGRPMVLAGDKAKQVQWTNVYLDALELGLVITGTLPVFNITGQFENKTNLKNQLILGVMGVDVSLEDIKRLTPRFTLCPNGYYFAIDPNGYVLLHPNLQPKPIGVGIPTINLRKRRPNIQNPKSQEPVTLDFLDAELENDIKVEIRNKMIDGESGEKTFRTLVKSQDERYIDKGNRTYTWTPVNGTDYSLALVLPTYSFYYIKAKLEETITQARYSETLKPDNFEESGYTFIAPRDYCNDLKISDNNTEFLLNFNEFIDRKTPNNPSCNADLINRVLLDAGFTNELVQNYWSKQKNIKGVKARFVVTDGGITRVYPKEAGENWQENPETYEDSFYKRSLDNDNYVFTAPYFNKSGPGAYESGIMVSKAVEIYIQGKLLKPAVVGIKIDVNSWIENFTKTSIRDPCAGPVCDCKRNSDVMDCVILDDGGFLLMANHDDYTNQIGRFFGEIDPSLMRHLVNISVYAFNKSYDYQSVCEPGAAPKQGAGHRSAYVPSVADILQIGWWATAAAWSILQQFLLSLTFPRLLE
T1 sequence (P54289 957-1103 partner limits assumed): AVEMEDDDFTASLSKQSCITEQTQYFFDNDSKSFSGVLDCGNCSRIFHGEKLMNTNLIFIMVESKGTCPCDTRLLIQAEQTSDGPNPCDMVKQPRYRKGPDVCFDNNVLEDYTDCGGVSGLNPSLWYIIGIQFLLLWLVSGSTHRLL
T1 sequence (P54284 whole entry partner): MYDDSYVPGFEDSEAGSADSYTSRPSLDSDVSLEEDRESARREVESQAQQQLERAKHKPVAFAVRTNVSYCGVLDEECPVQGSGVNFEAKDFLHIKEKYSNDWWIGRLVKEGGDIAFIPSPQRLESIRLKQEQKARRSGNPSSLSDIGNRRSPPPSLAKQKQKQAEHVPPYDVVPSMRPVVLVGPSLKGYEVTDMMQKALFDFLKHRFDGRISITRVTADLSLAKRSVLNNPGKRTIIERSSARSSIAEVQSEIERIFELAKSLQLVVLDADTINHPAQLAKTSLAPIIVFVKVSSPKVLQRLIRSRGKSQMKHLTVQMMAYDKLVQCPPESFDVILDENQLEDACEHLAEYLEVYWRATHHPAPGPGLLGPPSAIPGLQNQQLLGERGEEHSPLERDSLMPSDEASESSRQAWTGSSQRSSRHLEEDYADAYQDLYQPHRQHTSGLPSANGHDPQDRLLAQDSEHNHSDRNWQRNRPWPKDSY

SMILES	pIC50 [1]	pIC50 [2]
COc1ccc(OC)c(NCCC(=O)N2CCC(N(C(C)C)S(=O)(=O)c3cccc(C(F)(F)F)c3)CC2)c1 [N-{1-[3-(2,5-dimethoxy-phenylamino)-propionyl]-piperidin-4-yl}-N-isopropyl-3-trifluoromethyl-benzenesulfonamide]	6.12	< 4.70
CCC(C(=O)N1CCC(N(C(C)C)S(=O)(=O)c2cccc(C(F)(F)F)c2)CC1)N(C)Cc1ccccc1 (stereo not shown) [Compound 96, N-{1-[2-(Benzyl-methyl-amino)butyryl]-piperidin-4-yl}-N-isopropyl-3-trifluoromethylbenzenesulfonamide]	6.09	5.36
Cc1ccccc1NCCC(=O)N1CCC(N(C(C)C)S(=O)(=O)c2cccc(C(F)(F)F)c2)CC1 [N-isopropyl-N-[1-(3-o-tolylamino-propionyl)-piperidin-4-yl]-3-trifluoromethyl-benzenesulfonamide]	6.37	5.28
CC(C)N(C1CCN(C(=O)CCNc2ccc(F)c(F)c2)CC1)S(=O)(=O)c1cccc(C(F)(F)F)c1 [N-{1-[3-(3,4-difluoro-phenylamino)-propionyl]-piperidin-4-yl}-N-isopropyl-3-trifluoromethyl-benzenesulfonamide]	6.41	< 4.70
COc1ccc(CNCC(=O)N2CCC(N(C3CC3)S(=O)(=O)c3ccc(Cl)cc3)CC2)cc1 [Compound 100, 4-Chloro-N-cyclopropyl-N-{1-[2-(4-methoxybenzylamino)acetyl]-piperidin-4-yl}-benzenesulfonamide]	6.18	4.70 to 5.00
CC(C)N(C1CCN(C(=O)CCNc2ccc(Cl)cc2)CC1)S(=O)(=O)c1cccc(C(F)(F)F)c1 [N-{1-[3-(4-chloro-phenylamino)-propionyl]-piperidin-4-yl}-N-isopropyl-3-trifluoromethyl-benzenesulfonamide]	6.03	< 4.70
CC(C)N(C1CCN(C(=O)CNCC2CCCCC2)CC1)S(=O)(=O)c1cccc(C(F)(F)F)c1 [Compound 102, N-{1-[2-(Cyclohexylmethylamino)acetyl]-piperidin-4-yl}-N-isopropyl-3-trifluoromethylbenzenesulfonamide]	6.66	< 4.70
CC(C)N(C1CCN(CCCN(c2ccc(F)cc2)c2ccc(F)cc2)CC1)S(=O)(=O)c1cccc(C(F)(F)F)c1 [Compound 8, N-(1-{3-[Bis(4-fluorophenyl)amino]propyl}piperidin-4-yl)-N-isopropyl-3-trifluoromethylbenzenesulfonamide]	6.21	< 4.70
CC(C)N(C1CCN(C(=O)CCNc2ccccc2F)CC1)S(=O)(=O)c1cccc(C(F)(F)F)c1 [N-{1-[3-(2-fluoro-phenylamino)-propionyl]-piperidin-4-yl}-N-isopropyl-3-trifluoromethyl-benzenesulfonamide]	6.26	5.02
O=C(Nc1cc(C(F)(F)F)cc(C(F)(F)F)c1)N1CCC(N(C2CC2)S(=O)(=O)c2cccc(C(F)(F)F)c2)CC1 [Compound 111, 4-[Cyclopropyl-(3-trifluoromethylbenzenesulfonyl)amino]-piperidine-1-carboxylic acid (3,5-bis-trifluoromethylphenyl)-amide]	5.63	< 4.70

Results, then the compound that gave them:

pIC50 [1]	pIC50 [2]	SMILES
6.11	< 4.70	O=C(CN1CCC(N(C2CC2)S(=O)(=O)c2cccc(C(F)(F)F)c2)CC1)Nc1ccc(C(F)(F)F)cc1F [Compound 75, 2-{4-[Cyclopropyl-(3-trifluoromethylbenzenesulfonyl)amino]-piperidin-1-yl}-N-(2-fluoro-4-trifluoromethylphenyl)-acetamide]
6.15	< 4.70	O=C(Nc1ccc(F)cc1)C(=O)N1CCC(N(C2CC2)S(=O)(=O)c2cccc(C(F)(F)F)c2)CC1 [Compound 22, 2-{4-[Cyclopropyl-(3-trifluoromethylbenzenesulfonyl)amino]-piperidin-1-yl}-N-(4-fluorophenyl)-2-oxo-acetamide]
6.18	< 4.70	O=C(CN1CCC(N(C2CC2)S(=O)(=O)c2cccc(C(F)(F)F)c2)CC1)Nc1cc(C(F)(F)F)cc(C(F)(F)F)c1 [Compound 63, N-(3,5-Bis-trifluoromethylphenyl)-2-{4-[cyclopropyl-(3-trifluoromethylbenzenesulfonyl)amino]-piperidin-1-yl}-acetamide]
6.46	< 4.70	COc1ccc(CNCC(=O)N2CCC(N(C3CC3)S(=O)(=O)c3cccc(C(F)(F)F)c3)CC2)cc1 [Compound 99, N-Cyclopropyl-N-{1-[2-(4-methoxybenzylamino)acetyl]-piperidin-4-yl}-3-trifluoromethylbenzenesulfonamide]
6.24	5.01	CC(C)N(C1CCN(CCC(=O)Nc2ccc(F)cc2)CC1)S(=O)(=O)c1cccc(C(F)(F)F)c1 [Compound 107a, N-(4-Fluorophenyl)-3-{4-[isopropyl-(3-trifluoromethylbenzenesulfonyl)amino]-piperidin-1-yl}-propionamide]
6.34	5.49	Cc1ccccc1NC(=O)CN1CCC(N(C(C)C)S(=O)(=O)c2cccc(C(F)(F)F)c2)CC1 [Compound 42b, 2-{4-[Isopropyl-(3-trifluoromethylbenzenesulfonyl)amino]-piperidin-1-yl}-N-o-tolyl-acetamide]
6.38	4.70 to 5.00	CC(C)c1ccc(NC(=O)CN2CCC(N(C3CC3)S(=O)(=O)c3cccc(C(F)(F)F)c3)CC2)cc1 [Compound 59, 2-{4-[Cyclopropyl-(3-trifluoromethylbenzenesulfonyl)-amino]-piperidin-1-yl}-N-(4-isopropylphenyl)acetamide]
6.66	< 4.70	O=C(CN1CCC(N(C2CC2)S(=O)(=O)c2cccc(C(F)(F)F)c2)CC1)NCc1cc(C(F)(F)F)cc(C(F)(F)F)c1 [Compound 64, N-(3,5-Bis-trifluoromethylbenzyl)-2-{4-[cyclopropyl-(3-trifluoromethylbenzenesulfonyl)amino]-piperidin-1-yl}-acetamide]
6.21	< 4.70	O=C(CN1CCC(N(C2CC2)S(=O)(=O)c2cccc(C(F)(F)F)c2)CC1)Nc1ccc(F)c(C(F)(F)F)c1 [Compound 71, 2-{4-[Cyclopropyl-(3-trifluoromethylbenzenesulfonyl)amino]-piperidin-1-yl}-N-(4-fluoro-3-trifluoromethylphenyl)-acetamide]
6.12	< 4.70	CC(C)(C)c1ccc(NC(=O)CN2CCC(N(C3CC3)S(=O)(=O)c3cccc(C(F)(F)F)c3)CC2)cc1 [Compound 56]
